# In PMC4890880 (ACS infectious diseases, 2016):
# Where two headings read alike, the source gives them in different places.
# Legend:
# [1] = tested on: Plasmodium berghei (Pb-Luc) exoerythrocytic-stage parasites; conditions: for normalized signal at concentration 0.000508053 / normalized signal at concentration 0.00152416 / normalized signal at concentration 0.00457247 / normalized signal at concentration 0.0137174 / normalized signal at concentration 0.0411523 / normalized signal at concentration 0.123457 / normalized signal at concentration 0.37037 / normalized signal at concentration 1.11111 / normalized signal at concentration 3.33333 / normalized signal at concentration 10: fraction of control; for IC50: read-out: PbLuc_IC50; for IC50 / PbLuc_max_inhibition (%): sheet 2nd round; for PbLuc_max_inhibition (%): maximal inhibition in dose response
# HepG2-A16-CD81EGFP cells = conditions: sheet 2nd round; for IC50: read-out: Tox_IC50, HepG2 cytotoxicity; for Tox_max_inhibition (%): maximal inhibition in dose response
# [2] = second series of columns (replicate)
# [3] = first series of dose-response columns
# [4] = second series of dose-response columns
smiles,measurement,setting,value
Cc1noc(C)c1S(=O)(=O)N(C)C[C@@H]1OCCCC[C@@H](C)Oc2ccc(N(C)C)cc2C(=O)N([C@@H](C)CO)C[C@H]1C [BRD-K31367750-001-01-1],normalized signal at concentration 0.000508053,[1]; first series of columns,1.082
same,normalized signal at concentration 0.00152416,[1]; first series of columns,1.078
same,normalized signal at concentration 0.00457247,[1]; first series of columns,1.115
same,normalized signal at concentration 0.0137174,[1]; first series of columns,1.059
same,normalized signal at concentration 0.0411523,[1]; first series of columns,1.054
same,normalized signal at concentration 0.123457,[1]; first series of columns,1.1
same,normalized signal at concentration 0.37037,[1]; first series of columns,1.064
same,normalized signal at concentration 1.11111,[1]; first series of columns,0.9576
same,normalized signal at concentration 3.33333,[1]; first series of columns,1.005
same,normalized signal at concentration 10,[1]; first series of columns,1.057
same,IC50,"[1]; Pb-Luc exoerythrocytic stage, 10-point dose response, top concentration 10",> 10 µM
same,normalized signal at concentration 0.000508053,[1]; [2],1.02
same,normalized signal at concentration 0.00152416,[1]; [2],0.9419
same,normalized signal at concentration 0.00457247,[1]; [2],0.9058
same,normalized signal at concentration 0.0137174,[1]; [2],0.8746
same,normalized signal at concentration 0.0411523,[1]; [2],0.9045
same,normalized signal at concentration 0.123457,[1]; [2],0.9742
same,normalized signal at concentration 0.37037,[1]; [2],0.91
same,normalized signal at concentration 1.11111,[1]; [2],0.8518
same,normalized signal at concentration 3.33333,[1]; [2],0.8811
same,normalized signal at concentration 10,[1]; [2],0.9567
same,PbLuc_max_inhibition (%),[1],15%
same,IC50,HepG2-A16-CD81EGFP cells,> 10 µM
same,Tox_max_inhibition (%),HepG2-A16-CD81EGFP cells,10%
CN(C)c1ccc2c(c1)[C@@H]1C[C@@H](CC(=O)NC3CCCCC3)O[C@@H](CO)[C@@H]1O2 [BRD-K29474997-001-01-2],normalized signal at concentration 10,[1]; [3],1.33
same,normalized signal at concentration 0.000508053,[1]; first series,1.31
same,normalized signal at concentration 0.00152416,[1]; first series,1.11
same,normalized signal at concentration 0.00457247,[1]; first series,1.19
same,normalized signal at concentration 0.0137174,[1]; first series,0.90
same,normalized signal at concentration 0.0411523,[1]; first series,0.87
same,normalized signal at concentration 0.123457,[1]; first series,0.89
same,normalized signal at concentration 0.37037,[1]; first series,0.92
same,normalized signal at concentration 1.11111,[1]; first series,1.25
same,normalized signal at concentration 3.33333,[1]; first series,0.99
same,IC50,"[1]; Broad compounds, dose response",> 10 µM
same,normalized signal at concentration 10,[1]; [4],1.28
same,normalized signal at concentration 0.000508053,[1]; second series,1.12
same,normalized signal at concentration 0.00152416,[1]; second series,1.06
same,normalized signal at concentration 0.00457247,[1]; second series,1.06
same,normalized signal at concentration 0.0137174,[1]; second series,1.04
same,normalized signal at concentration 0.0411523,[1]; second series,1.09
same,normalized signal at concentration 0.123457,[1]; second series,0.92
same,normalized signal at concentration 0.37037,[1]; second series,0.91
same,normalized signal at concentration 1.11111,[1]; second series,1.04
same,normalized signal at concentration 3.33333,[1]; second series,1.16
same,PbLuc_max_inhibition (%),[1],13%
same,IC50,HepG2-A16-CD81EGFP cells,> 10 µM
same,Tox_max_inhibition (%),HepG2-A16-CD81EGFP cells,12%
CCc1csc(N2[C@H](CO)[C@H](c3ccccc3)[C@@H]2CNC)n1 [BRD-K87640608-001-01-8],normalized signal at concentration 10,[1]; [3],0.6764
same,normalized signal at concentration 0.000508053,[1]; first series,0.8428
same,normalized signal at concentration 0.00152416,[1]; first series,0.8502
same,normalized signal at concentration 0.00457247,[1]; first series,0.7149
same,normalized signal at concentration 0.0137174,[1]; first series,0.7931
same,normalized signal at concentration 0.0411523,[1]; first series,0.9257
same,normalized signal at concentration 0.123457,[1]; first series,0.8195
same,normalized signal at concentration 0.37037,[1]; first series,0.9077
same,normalized signal at concentration 1.11111,[1]; first series,1.056
same,normalized signal at concentration 3.33333,[1]; first series,0.9058
same,IC50,"[1]; Broad compounds, dose response",> 10 µM
same,normalized signal at concentration 10,[1]; [4],0.7611
same,normalized signal at concentration 0.000508053,[1]; second series,1.024
same,normalized signal at concentration 0.00152416,[1]; second series,0.9242
same,normalized signal at concentration 0.00457247,[1]; second series,1.045
same,normalized signal at concentration 0.0137174,[1]; second series,0.9989
same,normalized signal at concentration 0.0411523,[1]; second series,0.8698
same,normalized signal at concentration 0.123457,[1]; second series,0.9345
same,normalized signal at concentration 0.37037,[1]; second series,1.174
same,normalized signal at concentration 1.11111,[1]; second series,1.035
same,normalized signal at concentration 3.33333,[1]; second series,0.7843
same,PbLuc_max_inhibition (%),[1],32%
same,IC50,HepG2-A16-CD81EGFP cells,> 10 µM
same,Tox_max_inhibition (%),HepG2-A16-CD81EGFP cells,3.76%
